Structures are written as SMILES. Where only a bound is given, the exact number is not on record here.

Sequence of MEK1 (Q02750 whole entry): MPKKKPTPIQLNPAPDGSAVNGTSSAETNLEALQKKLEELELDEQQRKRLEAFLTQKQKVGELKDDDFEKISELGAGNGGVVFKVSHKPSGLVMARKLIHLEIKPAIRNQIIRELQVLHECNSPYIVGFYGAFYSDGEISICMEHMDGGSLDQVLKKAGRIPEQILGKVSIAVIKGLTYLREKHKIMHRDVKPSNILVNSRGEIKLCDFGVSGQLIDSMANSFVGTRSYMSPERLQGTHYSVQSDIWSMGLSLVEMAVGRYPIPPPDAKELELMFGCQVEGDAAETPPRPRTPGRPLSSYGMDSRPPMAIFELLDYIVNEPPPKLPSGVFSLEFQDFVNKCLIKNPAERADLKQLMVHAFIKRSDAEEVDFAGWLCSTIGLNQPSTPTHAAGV

Test system in one data set: not listed separately
In words: Human liver S9 fraction stability assay. Format: in vitro ADME. The settings on record: pH 7.4, human liver S9, 1 μM test compound, 2 mg/mL protein, 1 mM NADPH, 37° C., read-out: Liver S9 fraction stability, t1/2. On the procedure:
Compounds can be assessed for metabolic stability in human skin by assessing their rate of disappearance from human S9 skin fraction. Similarly, compounds can be assessed for metabolic stability in human liver by assessing their rate of disappearance from human S9 liver fraction. The protocol below is used to assess the difference between skin and hepatic metabolism.
The assay was carried out in 96-well microtiter plates at 37° C. Reaction mixtures (25 μL) contained a final concentration of 1 μM test compound, 2 mg/mL liver or skin protein, and 1 mM NADPH in buffer (100 mM potassium phosphate, pH 7.4 buffer with 1 mM EDTA, 3 mM MgCl2). At each of the time points (0, 15, 30, and 60 minutes), 150 μL of quench solution (100% acetonitrile with 0.1% formic acid) with internal standard was transferred to each well. Besides the zero minute controls, mixtures containing the same components except the NADPH were also prepared as the negative control. Verapamil or testosterone was included as a positive control to verify assay performance. Plates were sealed and centrifuged at 4° C. for 15 minutes at 4000 rpm. The supernatant was transferred to fresh plates for LC/MS/MS analysis.
All samples were analyzed on LC/MS/MS using an AB Sciex API 4000 instrument, coupled to a Shimadzu LC-20AD LC Pump system. Analytical samples were separated using a Waters Atlantis T3 dC18 reverse phase HPLC column (20 mm×2.1 mm) at a flow rate of 0.5 mL/min. The mobile phase consisted of 0.1% formic acid in water (solvent A) and 0.1% formic acid in 100% acetonitrile (solvent B).
The extent of metabolism was calculated as the disappearance of the test compound, compared to the 0-min control reaction incubations. Initial rates were calculated for the compound concentration and used to determine t1/2 values and subsequently, the intrinsic clearance, CLint=(0.693) (1/t1/2 (min)) (mL incubation/mg of S9 protein).
Table 4 lists t1/2 values for the above liver S9 stability assay. […]
Turning to `O=c1c2c(Nc3ccc(I)cc3F)cncc2ccn1OCCO` [Compound 1.007, 8-(2-Fluoro-4-iodophenylamino)-2-(2-hydroxyethoxy)-2,6-naphthyridin-1(2H)-one], the half-life at 1 μM is 50 to 200 min.

For the molecule `O=C1c2c(cncc2Nc2ccc(I)cc2F)CCN1OCCO` [Compound 1.010, 8-(2-Fluoro-4-iodophenylamino)-2-(2-hydroxyethoxy)-3,4-dihydro-2,6-naphthyridin-1(2H)-one], the half-life at 1 μM is 50 to 200 min.

Consider `O=C1NCCc2cncc(Nc3ccc(I)cc3F)c21` [Compound 1.012, 8-((2-Fluoro-4-iodophenyl)amino)-3,4-dihydro-2,6-naphthyridin-1(2H)-one], for which the half-life at 1 μM was not above 50 min.

A further data set has as its target MEK1 (Homo sapiens (Human), UniProt Q02750). In words: MEK1 inhibition assay (Z'-LYTE biochemical assay). The following applies: MAP2K1 (MEK1)/inactive MAPK1 (ERK2)/Ser/Thr 03 cascade, 10 point titration; read-out: IC50 against MEK1. How it is done:
MEK1 inhibitory activity of compounds were tested using the following procedure (protocol available at thermofisher.com/content/dam/LifeTech/migration/files/drug-discovery/pdfs.par.60256.file.dat/20130430%20ssbk%20customer%20protocol%20and%20assay%20conditions.pdf). The Z′-LYTE biochemical assay (ThermoFisher) employs a fluorescence-based, coupled-enzyme format and is based on the differential sensitivity of phosphorylated and non-phosphorylated peptides to proteolytic cleavage.
Test compounds in 100% DMSO were screened in 1% DMSO (final) in the well. For 10 point titrations, 3-fold serial dilutions are conducted from the starting concentration of 30 μM.
After the 1 hour incubation, 5 μL of a 1:1024 dilution of Development Reagent A (available from Invitrogen, catalog no. PV3295) was added.
ATP solutions were diluted to a 4× working concentration in Kinase Buffer (50 mM HEPES pH 7.5, 0.01% BRIJ-35, 10 mM MgCl2, 1 mM EGTA). ATP Km apparent was previously determined using a Z′-LYTE assay. The Development Reagent was diluted in Development Buffer (available from Invitrogen, catalog no. P3127).
Assay Protocol: 2.5 μL of 4× test compound or 100 nL of 100× Test Compound plus 2.4 μL Kinase Buffer, 5 μL of the 2× Peptide/Kinase Mixture, 2.5 μL of 4×ATP Solution were added to the plates and placed on a shake plate for 30-seconds. The kinase reaction was allowed to proceed for 60-minute at room temperature, before 5 μL of Development Reagent Solution was added, and the mixture agitated for 30-seconds on a shake plate. The mixture was incubated for 60-minute at room temperature. Fluorescence was measured using a plate reader and the data were analyzed.
This control yielded 100% cleaved peptide in the Development Reaction. The 100% Phosphorylation Control, which consisted of a synthetically phosphorylated peptide of the same sequence as the peptide substrate, was designed to allow for the calculation of percent phosphorylation. This control yielded a very low percentage of cleaved peptide in the Development Reaction. The 0% Phosphorylation and 100% Phosphorylation Controls allow for the calculation of the percent phosphorylation achieved in a specific reaction well.
The minimum emission ratio in a screen was established by the 0% Inhibition Control, which contained active kinase. This control was designed to produce a 10-50% phosphorylated peptide in the Kinase Reaction. […]
A known inhibitor control standard curve, 10 point titration, was run for each individual kinase on the same plate as the kinase to ensure the kinase was inhibited within an expected IC50 range previously determined.
The following controls are prepared for each concentration of Test Compound assayed. […] The expected value for a non-fluorescence compound should be 0%. […]
The data in Table A was calculated. […]
On to `COC(=O)Cn1ccc2cncc(Nc3ccc(I)cc3F)c2c1=O` [Compound 1.005, Methyl 2-(8-(2-fluoro-4-iodophenylamino)-1-oxo-2,6-naphthyridin-2(1H)-yl)acetate], for which the IC50 – broadly, the concentration that inhibits the measured activity by half – was more than 1500 nM.

Consider `O=c1c2c(Nc3ccc(I)cc3F)cncc2ccn1C[C@H](O)CO` [Compound 1.002, (S)-2-(2,3-Dihydroxypropyl)-8-(2-fluoro-4-iodophenylamino)-2,6-naphthyridin-1(2H)-one], for which the IC50 was not above 150 nM.

With `O=C(O)Cn1ccc2cncc(Nc3ccc(I)cc3F)c2c1=O` [Compound 1.004, 2-(8-(2-Fluoro-4-iodophenylamino)-1-oxo-2,6-naphthyridin-2(1H)-yl)acetic acid], the concentration for half-maximal inhibition (IC50) is more than 1500 nM.

Turning to `O=c1c2c(Nc3ccc(I)cc3F)cncc2ccn1C[C@@H](O)CO` [Compound 1.001, (R)-2-(2,3-Dihydroxypropyl)-8-(2-fluoro-4-iodophenylamino)-2,6-naphthyridin-1(2H)-one], the half-maximal inhibitory concentration (IC50) was not above 150 nM.
